The values below come from ChEMBL document CHEMBL5150036, “Photoredox-based late-stage functionalization in SAR study for in vivo potent glucosylceramide synthase inhibitor” (Bioorg Med Chem Lett, 2022).

The nature of series [1]: Metabolic stability in mouse liver microsomes assessed as intrinsic clearance at 1 uM in the presence of NADPH regenerating system by LC/MS/MS analysis. Conditions: read-out: CLH. The series is classed as ADME, Microsome. A general note: Microsomes from liver hold many membrane-bound enzymes, among them those of drug oxidation.
Series [2] can be described thus: 1-Octanol/aqueous buffer partition coefficient, logD of the compound at pH 7.4 by chromatographic method. The series is classed as physicochemical.
Series [3] can be described thus: Metabolic stability in human liver microsomes assessed as intrinsic clearance at 1 uM in the presence of NADPH regenerating system by LC/MS/MS analysis. The series is classed as ADME, Microsome. Conditions: read-out: CLH.
The nature of series [4]: Drug concentration in ICR mouse plasma at 10 mg/kg, po measured after 60 mins by LC-MS/MS analysis. The class given is ADME, organism-based.
The nature of series [5]: Unbound drug concentration in ICR mouse plasma at 10 mg/kg, po measured after 60 mins by LC-MS/MS analysis. The series is classed as ADME, organism-based. Conditions: in vivo, 1 h.
A short description of series [6]: Drug concentration in ICR mouse brain at 10 mg/kg, po measured after 60 mins by LC-MS/MS analysis. The class given is ADME, organism-based. Conditions: read-out: Ct.
The nature of series [7]: Unbound brain-to-plasma concentration ratio in ICR mouse at 10 mg/kg, po measured after 60 mins by LC-MS/MS analysis. The series is classed as ADME, organism-based. Conditions: read-out: K(p,uu,brain).
Series [8] can be described thus: Unbound drug concentration in ICR mouse brain at 10 mg/kg, po measured after 60 mins by LC-MS/MS analysis. The series is classed as ADME, organism-based. Conditions: in vivo, 1 h.

For `CC(C)(O)c1ccc(N2Cc3c(cc(C(C)(C)F)nc3-c3ccccc3OCC(F)F)C2=O)cc1`, the microsomal CLint at 1 µM in series [1] was 1 µL/min/mg. Moreover, in series [2], the chromatographic logD (as a rule, lipophilicity estimated from chromatographic retention) turned out to be 3.69.
The corresponding values for `Cc1cc2c(c(-c3ccccc3OCC(F)F)n1)CN(c1ccc(C(C)(C)O)cc1)C2=O` are 1 µL/min/mg and 2.69.
As to `CC(C)(O)c1ccc(N2Cc3c(cc(C4CCOCC4)nc3-c3ccccc3OCC(F)F)C2=O)cc1`, the results for the microsomal CLint at 1 µM in series [1] and in series [3] were 5 µL/min/mg and 1 µL/min/mg, respectively. This molecule also came in with a chromatographic logD in series [2] of 2.98.
Take `Cc1cc2c(c(-c3ccccc3OCC(F)(F)F)n1)CN(c1ccc(C(C)(C)O)cc1)C2=O`: the microsomal CLint at 1 µM in series [1] was determined as 4 µL/min/mg. The concentration at 1 h is 1940 ng/mL in series [4] and 1140 ng/g in series [6]. The “Cp(f)” value in series [5] was determined as 387 nM. The molecule also showed a chromatographic logD in series [2] of 2.85. Also, the Kp uu at 1 h in series [7] is 0.11. The “Drug uptake(free)” value in series [8] is reported as 43 nM.
For `CC(C)(O)c1ccc(N2Cc3c(cc(C(C)(C)O)nc3-c3ccccc3OCC(F)F)C2=O)cc1`, the microsomal CLint at 1 µM in series [3] was 3 µL/min/mg. In series [2], this molecule had a chromatographic logD of 2.77.
Consider `CC(C)(O)c1ccc(N2Cc3c(cc(C4CCCCC4)nc3-c3ccccc3OCC(F)F)C2=O)cc1`, for which the microsomal CLint at 1 µM in series [1] is 56 µL/min/mg; in series [3] it was 33 µL/min/mg. The chromatographic logD in series [2] worked out at 4.63.
`CN(C)C(=O)c1cc2c(c(-c3ccccc3OCC(F)F)n1)CN(c1ccc(C(C)(C)O)cc1)C2=O`: the chromatographic logD in series [2] was found to be 1.85.
For `CC(C)(O)c1ccc(N2Cc3c(cc(C4(C)COC4)nc3-c3ccccc3OCC(F)(F)F)C2=O)cc1`, the figures for the microsomal CLint at 1 µM in series [1] and in series [3] were 52 µL/min/mg and 33 µL/min/mg, respectively. In addition, the values for the concentration at 1 h in series [4] and in series [6] were 76 ng/mL and 17 ng/g, respectively. The “Cp(f)” value in series [5] came out at 17 nM. For the same molecule, the chromatographic logD in series [2] stood at 2.9. In addition, the Kp uu at 1 h in series [7] was determined as 0.04. Further, the “Drug uptake(free)” value in series [8] was 0.7 nM.
For the molecule `CC(C)(O)c1ccc(N2Cc3c(ccnc3-c3ccccc3OCC(F)(F)F)C2=O)cc1`, the microsomal CLint at 1 µM in series [1] is 12 µL/min/mg; in series [3] it was 40 µL/min/mg. In series [2], this molecule gave a chromatographic logD of 2.37.
In the same order, the values of `CC(C)(O)c1ccc(N2Cc3c(ccnc3-c3ccccc3OCC(F)F)C2=O)cc1` are 27 µL/min/mg, 17 µL/min/mg and 2.2.
In the case of `CC(C)(O)c1ccc(N2Cc3c(cc(C(F)F)nc3-c3ccccc3OCC(F)F)C2=O)cc1`, the chromatographic logD in series [2] was 2.86.
Regarding `CC(C)(O)c1ccc(N2Cc3c(cc(C4(C)COC4)nc3-c3ccccc3OCC(F)F)C2=O)cc1`, the figures for the microsomal CLint at 1 µM in series [1] and in series [3] were 32 µL/min/mg and 16 µL/min/mg, respectively. For the same molecule, the concentration at 1 h in series [4] was 284 ng/mL; in series [6], 65 ng/g. The “Cp(f)” value in series [5] stood at 124 nM. Besides, in series [2], the chromatographic logD was 2.76. The Kp uu at 1 h in series [7] worked out at 0.03. The “Drug uptake(free)” value in series [8] is 3.9 nM.
On to `CC(C)(O)c1ccc(N2Cc3c(cc(C4CCCOC4)nc3-c3ccccc3OCC(F)F)C2=O)cc1` (racemic), for which the values for the microsomal CLint at 1 µM in series [1] and in series [3] were 46 µL/min/mg and 61 µL/min/mg, respectively. Also, the chromatographic logD in series [2] was determined as 3.19.
